Experiments:
[1] = target: T1, KRAS G12D protein (Homo sapiens, UniProt P01116, G12D); assay: KRAS degradation activity by Cell ELISA in AsPC-1 (Test Example 1); assay type: cell-based; conditions: AsPC-1 cells, cultured overnight with compound, corrected with β-actin, read-out: DC50 (50% degradation concentration of the amounts of KRAS)
T1 construct: host or cells: AsPC-1
Experimental: Test Example 1: Evaluation of KRAS Degradation Activity on Human G12D Mutant KRAS-Positive Pancreatic Cancer Line AsPC-1 (CRL-1682; ATCC)
The KRAS degradation activity of test compounds was evaluated by measuring the expression levels of KRAS G12D protein by Cell ELISA.
AsPC-1 cells were seeded at 20 μL per well on 384-well plates (from Greiner bio-one) to give 2.0×10^4 cells per well. As for the cell culture conditions, RPMI 1640 (from Sigma-Aldrich) medium containing 10% fetal bovine serum (from Cytiva) was used in the presence of 5% CO2 at 37° C.
The next day, the test compounds (10 points having final concentrations in the range of 10 μM to 0.3 nM) and DMSO (from FUJIFILM Wako Pure Chemical Corporation), which was the solvent for the test compounds, as a negative control were diluted 500-fold with a fresh medium and were added at 20 μL per well. The cells were cultured overnight.
The next day, the culture supernatant was removed, and 4% paraformaldehyde phosphate buffer (from FUJIFILM Wako Pure Chemical Corporation) was added at 20 μL per well. The plates were allowed to stand for 30 minutes at room temperature to thus immobilize the cells. Then, the supernatant was removed, and 0.1% Triton X-100 (from Amersham Biosciences)-containing Phosphate buffered saline (PBS; from FUJIFILM Wako Pure Chemical Corporation) was added at 20 μL per well. After allowing to stand for 10 minutes at room temperature, the supernatant was removed. PBS was added at 25 μL per well, and the supernatant was removed to thus wash each well. The washing was performed twice in total. Next, the supernatant was removed, and 0.5% sodium dodecyl sulfate (SDS; from Invitrogen)-containing PBS was added at 20 μL per well. After allowing to stand at room temperature for 10 minutes, the supernatant was removed by a centrifugal operation (using a centrifugal dehydrator machine, the supernatant was removed by the same method hereinafter). PBS was added at 25 μL per well, and the supernatant was removed to thus wash each well. The washing was performed twice in total. The supernatant was removed, and blocking solution (Intercept Blocking Buffer; from Li-COR Biosciences) was added at 20 μL per well. After allowing to stand for 30 minutes at room temperature, the supernatant was removed, and a solution obtained by diluting anti-β-actin antibody (Anti-beta Actin antibody [mAbcam 8226]-Loading Control; from abcam) 1,000-fold with blocking solution and a solution obtained by diluting anti-Ras (G12D Mutant Specific) antibody (Ras (G12D Mutant Specific) (D8H7) Rabbit mAb #14429; from Cell Signaling Technology) and anti-β-actin antibody (from abcam) 1,000-fold with blocking solution were respectively added to positive control wells and the other wells at 20 μL per well as a primary antibody. The plate was allowed to stand overnight at 4° C.
The next day, the supernatant was removed. PBS was added at 25 μL per well, and the supernatant was removed to thus wash each well. The washing was performed twice in total. The supernatant was removed, and a solution obtained by diluting Donkey anti-Mouse IgG H&L (IRDye 680RD) (from Li-COR Biosciences) and Goat anti-Rabbit IgG H&L (IRDye 800CW) (from Li-COR Biosciences) 1,000-fold with blocking solution was added at 20 μL per well as a secondary antibody. After allowing to stand for 1 hour at room temperature, the supernatant was removed. PBS was added at 25 μL per well, and the supernatant was removed to thus wash each well. The washing was performed twice in total. After removing the supernatant, the plate was dried with air at room temperature for 2 hours or more, and the 700 nm and 800 nm fluorescent signals were measured with Aerius (from Li-COR Biosciences). […]

[2] = test system: phosphorylation of threonine 202 (Thr202) and tyrosine 204 (Tyr204) of ERK; assay: ERK phosphorylation inhibitory effect by Cell ELISA in AsPC-1 (Test Example 2); assay type: cell-based, human; conditions: Homo sapiens, ASPC1, AsPC-1 cells, cultured overnight with compound; 1 μM trametinib taken as 0%
Experimental: Test Example 2: Evaluation of ERK Phosphorylation Inhibitory Effect on Human G12D Mutant KRAS-Positive Pancreatic Cancer Line AsPC-1
The ERK phosphorylation inhibitory effect of test compounds was evaluated by measuring phosphorylation of threonine 202 (Thr202) and tyrosine 204 (Tyr204) of ERK located downstream of the KRAS signal by Cell ELISA.
AsPC-1 cells were seeded on 384-well plates at 36 μL/well to give 2.0×10^4 cells per well. As for the cell culture conditions, RPMI 1640 medium containing 10% fetal bovine serum was used in the presence of 5% CO2 at 37° C.
The next day, the test compounds (10 points having final concentrations in the range of 10 μM to 0.3 nM), trametinib (MEK inhibitor) of a final concentration of 1 μM as positive control and DMSO, which was the solvent for the test compounds, as negative control were diluted 100-fold with a fresh medium and were added at 4 μL per well. The cells were cultured overnight. After culturing, 30% glyoxal solution (40% glyoxal [from Nacalai Tesque] was diluted with PBS) was quickly added at 30 μL per well, and the plate was allowed to stand for 60 minutes at room temperature to thus immobilize the cells. Then, the plate was centrifuged to remove the supernatant (using a centrifugal dehydrator machine, the supernatant was removed by the same method hereinafter), and 0.1% Triton X-100-containing PBS was added at 20 μL per well. After allowing to stand for 10 minutes at room temperature, the supernatant was removed, and the same operation was further repeated. Next, 0.5% SDS-containing PBS was added at 20 μL per well, and after allowing to stand at room temperature for 30 minutes, the supernatant was removed. Subsequently, blocking solution (Intercept Blocking Buffer) was added at 20 μL per well, and the plate was allowed to stand for 1 hour at room temperature. The supernatant was removed, and an ERK (Thr202/Tyr204) phosphorylation antibody (Phospho-p44/42 MAPK (Erk 1/2) (Thr202/Tyr204) (D13.14.4E) XP Rabbit mAb; from Cell Signaling Technology) diluted 2,500-fold with blocking solution was added at 15 μL per well as a primary antibody. The plates were allowed to stand at 4° C. overnight.
The next day, the supernatant was removed. 0.05% Tween-20 (from Thermo Fisher Scientific)-containing PBS was added at 50 μL per well, and the supernatant was removed to thus wash each well. The washing was performed three times in total. After washing, Goat anti-Rabbit IgG H&L (IRDye 800CW) diluted 1,000-fold with blocking solution was added at 15 μL per well as a secondary antibody, and the plates were allowed to stand for 1 hour at room temperature. The supernatant was removed, and each well was washed three times with 0.05% Tween-20-containing PBS in the same manner as after the primary antibody reaction. After removing the supernatant, the plates were dried with air at room temperature for 3 hours or more, and the 800-nm fluorescent signals were measured with Aerius.
With the signaling value at the time of addition of DMSO taken as 100% and with the signaling value at the time of addition of 1 μM trametinib taken as 0%, the 50% inhibitory concentration values (IC50) were calculated by Sigmoid-Emax nonlinear regression analysis.

[3] = test system: human G12D mutant KRAS-positive pancreatic cancer line AsPC-1; assay: Non-anchorage-dependent cell growth inhibition, spheroid 3D cell culture (Test Example 3); assay type: cell-based; conditions: Homo sapiens, ASPC1, 144 h, AsPC-1 spheroid 3D culture, 6 days, CellTiter Glo 2.0
Experimental: Test Example 3: Evaluation of Non-Anchorage-Dependent Cell Growth Inhibitory Effect on Human G12D Mutant KRAS-Positive Pancreatic Cancer Line AsPC-1
The non-anchorage-dependent cell growth inhibitory effect of test compounds was evaluated by spheroid 3D cell culture.
AsPC-1 cells were seeded on low-cell-adhesive round bottom 384-well plates (PrimeSurface: from Sumitomo Bakelite) at 36 μL/well to give 5×10^2 cells per well. As for the cell culture conditions, RPMI 1640 medium containing 10% fetal bovine serum was used in the presence of 5% CO2 at 37° C.
The next day, the test compounds (10 or 6 points having final concentrations in the range of 10 μM to 0.3 nM) and DMSO, which was the solvent for the test compounds, as a negative control were diluted 100-fold with a fresh medium and were added at 4 μL per well. After culturing in the presence of 5% CO2 at 37° C. for 6 days, CellTiter Glo 2.0 (from Promega) was added at 20 μL per well. After stirring with a plate mixer (from FINEPCR) at room temperature for 1 hour, the luminescent signals were measured with ARVO X3 (from PerkinElmer).
With the signaling value in treatment with DMSO taken as 100% and with the signaling value in the medium alone without cells taken as 0%, the 50% inhibitory concentration values (IC50) were calculated by Sigmoid-Emax nonlinear regression analysis.

T1 sequence (P01116 1-188 isoform P01116-2 G12D): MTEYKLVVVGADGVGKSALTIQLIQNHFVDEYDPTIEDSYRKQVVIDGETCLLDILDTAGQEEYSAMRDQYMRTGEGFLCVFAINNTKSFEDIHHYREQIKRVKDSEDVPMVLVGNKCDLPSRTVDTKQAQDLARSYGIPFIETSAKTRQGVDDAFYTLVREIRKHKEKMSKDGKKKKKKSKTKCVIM

Row | SMILES | DC50 [1] [nM] | IC50 [2] [nM] | IC50 [3] [nM]
1 | Cc1ncsc1-c1ccc([C@H](CO)NC(=O)[C@@H]2C[C@@H](O)CN2C(=O)[C@H](C(C)C)n2cc(-c3ccc(COc4c(-c5c(C)c(F)cc6[nH]ncc56)c(C5CC5)cc5c(O[C@H]6CCNC6)nc(OC6CCOCC6)nc45)cc3)nn2)cc1 (atropisomer, axis not shown) [Example 1] | 13 | 7 | 9
2 | CO[C@@H](C)COc1nc(O[C@H]2CCNC2)c2cc(C3CC3)c(-c3c(C)c(F)cc4[nH]ncc34)c(OCc3ccc(-c4cn([C@H](C(=O)N5C[C@H](O)C[C@H]5C(=O)N[C@@H](CO)c5ccc(-c6scnc6C)cc5)C(C)C)nn4)cc3)c2n1 (atropisomer, axis not shown) [Example 5] | 9 | 12 | 10
3 | CO[C@@H](C)COc1nc(N[C@H]2CCNC2)c2cc(C3CC3)c(-c3c(C)c(F)cc4[nH]ncc34)c(OCc3ccc(-c4cn([C@H](C(=O)N5C[C@H](O)C[C@H]5C(=O)N[C@@H](CO)c5ccc(-c6scnc6C)cc5)C(C)C)nn4)cc3)c2n1 (atropisomer, axis not shown) [Example 6] | 24 | 5 | 8
4 | Cc1ncsc1-c1ccc([C@H](CO)NC(=O)[C@@H]2C[C@@H](O)CN2C(=O)[C@H](C(C)C)n2cc(-c3ccc(COc4c(-c5c(C)c(F)cc6[nH]ncc56)c(C5CC5)cc5c(N[C@@H]6CNC[C@@H]6O)nc(OC6CCOCC6)nc45)cc3)nn2)cc1 (atropisomer, axis not shown) [Example 7] | 40 | 9 | 23
5 | Cc1ncsc1-c1ccc([C@H](CO)NC(=O)[C@@H]2C[C@@H](O)CN2C(=O)[C@H](C(C)C)n2cc(-c3ccc(COc4c(-c5c(C)c(F)cc6[nH]ncc56)c(C5CC5)cc5c(N(C)[C@H]6CCNC6)nc(OC6CCOCC6)nc45)cc3)nn2)cc1 (atropisomer, axis not shown) [Example 8] | 18 | 20 | 16
6 | CO[C@@H](C)COc1nc(N(C)[C@H]2CCNC2)c2cc(C3CC3)c(-c3c(C)c(F)cc4[nH]ncc34)c(OCc3ccc(-c4cn([C@H](C(=O)N5C[C@H](O)C[C@H]5C(=O)N[C@@H](CO)c5ccc(F)cc5)C(C)C)nn4)cc3)c2n1 (atropisomer, axis not shown) [Example 12] | 61 | 42 | 41
7 | Cc1ncsc1-c1ccc([C@H](CO)NC(=O)[C@@H]2C[C@@H](O)CN2C(=O)[C@H](C(C)C)n2cc(-c3ccc(COc4c(-c5c(C)c(F)cc6[nH]ncc56)c(C5CC5)nc5c(N6C[C@@H]7C[C@H]6CN7)nc(OC6CCOCC6)nc45)cc3)nn2)cc1 [Example 57, (4R)-1-[(2S)-2-(4-{4-[({6-cyclopropyl-4-[(1S,4S)-2,5-diazabicyclo[2.2.1]heptan-2-yl]-7-(6-fluoro-5-methyl-1H-indazol-4-yl)-2-[(oxan-4-yl)oxy]pyrido[3,2-d]pyrimidin-8-yl}oxy)methyl]phenyl}-1H-1,2,3-triazol-1-yl)-3-methylbutanoyl]-4-hydroxy-N-{(1R)-2-hydroxy-1-[4-(4-methyl-1,3-thiazol-5-yl)phenyl]ethyl}-L-prolinamide] |  |  | 95

These reach a lower IC50 [3]. Values come first.

Row | DC50 [1] [nM] | IC50 [2] [nM] | IC50 [3] [nM] | SMILES
8 | 47 | 16 | 7 | Cc1ncsc1-c1ccc([C@H](CO)NC(=O)[C@@H]2C[C@@H](O)CN2C(=O)[C@H](C(C)C)n2cc(-c3ccc(COc4c(-c5c(C)c(F)cc6[nH]ncc56)c(C5CC5)cc5c(N[C@H]6CCNC6)nc(OC6CCOCC6)nc45)cc3)nn2)cc1 (atropisomer, axis not shown) [Example 3]
9 | 20 | 4 | 4 | CO[C@@H](C)COc1nc(N(C)[C@H]2CCNC2)c2cc(C3CC3)c(-c3c(C)c(F)cc4[nH]ncc34)c(OCc3ccc(-c4cn([C@H](C(=O)N5C[C@H](O)C[C@H]5C(=O)N[C@@H](CO)c5ccc(-c6ocnc6C)cc5)C(C)C)nn4)cc3)c2n1 (atropisomer, axis not shown) [Example 14]
10 | 99 | 7 | 7 | CO[C@@H](C)COc1nc(N(C)[C@H]2CCNC2)c2cc(C3CC3)c(-c3c(C)c(F)cc4[nH]ncc34)c(OCc3ccc(-c4cn([C@H](C(=O)N5C[C@H](O)C[C@H]5C(=O)N[C@@H](CO)c5ccc(N6CCOC6=O)cc5)C(C)C)nn4)cc3)c2n1 (atropisomer, axis not shown) [Example 15]

Source: US20250206751A1, “HETEROCYCLIC COMPOUND FOR INDUCING DEGRADATION OF G12D MUTANT KRAS PROTEIN” (Astellas Pharma Inc., priority 2022, published 2025)
